# In PMC8803706, “Fibroblast activation protein targeted therapy using [^177Lu]FAPI-46 compared with [^225Ac]FAPI-46 in a pancreatic cancer model” (European Journal of Nuclear Medicine and Molecular Imaging, 2021):
# Columns and labels:
# PANC-1 xenograft mice [1] = experiment: [^18F]FAPI-74 PET imaging in PANC-1 xenograft mice; type: in vivo
# Method: PET images were acquired with a small animal PET scanner (Siemens Inveon PET/CT) 3 weeks after the implantation in PANC-1 xenograft mice (9 weeks old, body weight = 25.3 ± 1.2 g, n = 9). Under 2% isoflurane anesthesia, [^18F]FAPI-74 (12.4 ± 1.7 MBq) was injected in the tail vein. Dynamic PET scans (scan duration = 70 min, n = 2) were started simultaneously with the bolus injection. Static PET scans (scan duration = 10 min, n = 7) were performed 1 h after injection, followed by a CT scan. PET data were reconstructed into 2-min frames in the dynamic PET scan (2 min × 35 frames) and one frame in the static PET scan by three-dimensional ordered-subset expectation–maximization (16 subsets, 2 iterations), with attenuation and scatter correction. Regions of interest were drawn on the muscle, heart, lungs, liver, gallbladder, kidneys, intestine, and tumour. The mean standardized uptake values (SUVmean) and maximum standardized uptake values (SUVmax) were measured using PMOD (Version 4.0).
# PANC-1 xenograft mice [2] = experiment: Histological analysis (H&E) of kidneys and tumours after treatment; type: in vivo
# Method: All mice were killed after [^18F]FAPI-74 PET imaging, and tumour xenografts were removed. Immunohistochemical staining was performed using anti-FAP alpha antibody (ab53066; Abcam, Cambridge, UK), and the Dako EnVision + System—HRP Labelled Polymer Anti-Rabbit (K4003) (DAKO Corp., Glostrup, Denmark). To evaluate toxicity, the kidneys were removed after the mice treated with [^177Lu]FAPI-46 and [^225Ac]FAPI-46 were sacrificed. The tissues were fixed in 10% neutral buffered formalin solution for paraffin blocks and stained with hematoxylin and eosin (H&E). Tumour blocks in all mice were also stained with H&E.
# PANC-1 xenograft mice [3] = experiment: Biodistribution of [^177Lu]FAPI-46 and [^225Ac]FAPI-46 in PANC-1 xenograft mice (gamma counter); type: in vivo; details: for organs with relatively high accumulation / residence: 24 h post-injection; for clearance from organs: between 3 and 24 h post-administration
# Method: [^177Lu]FAPI-46 (3.3 ± 0.1 MBq) and [^225Ac]FAPI-46 (12.5 ± 0.7 kBq) were injected into PANC-1 xenograft mice (9 weeks old, body weight = 23.9 ± 0.9 g, n = 12). After euthanasia by deep inhalation anesthesia with isoflurane, the brain, thyroid gland, salivary glands, lungs, heart, liver, spleen, pancreas, stomach, small intestine, large intestine, kidneys, bone (femur), bladder, testis, tumour, blood, and urine were removed and weighed at 3 h and 24 h. Radioactivity was also measured using a gamma counter (2480 Wizard^2 Gamma Counter, Perkin Elmer, USA).
# PANC-1 xenograft = experiment: Treatment effect on tumour size in PANC-1 xenograft mice; type: in vivo; details: for relative ratio of the tumour size compared to the control group: day 40
# Method: Male nude mice (BALB/cSlc-nu/nu) were purchased from Japan SLC Inc. (Hamamatsu, Japan). Animals were housed under a 12-h light/12-h dark cycle and allowed free access to food and water. The mice were injected with PANC-1 cells (1 × 10^7 cells) in a mixture of phosphate-buffered saline and Matrigel (0.1 mL, 1:1; BD Biosciences, Franklin Lakes, NJ, USA). Tumour xenograft models were evaluated 3 weeks after transplantation of PANC-1 cells (tumour volume = 716 ± 304 mm^3). Euthanasia was performed in the following conditions: (1) when the animals had unbearable suffering, (2) when a significant decrease in activity or a marked decrease in food and water intake was observed, and (3) at the end of the observation period (up to 44 days for [^177Lu]FAPI-46 and 32 days for [^225Ac]FAPI-46). Euthanasia was performed by deep anesthesia using isoflurane inhalation.
# (§1) [^177Lu]FAPI-46 and [^225Ac]FAPI-46 were injected into PANC-1 xenograft mice via the tail vein (9 weeks old, body weight = 22.7 ± 2.1 g). Mice injected with [^177Lu]FAPI-46 were divided into four groups according to the injected dose: 3 MBq (3.2 ± 0.1 MBq, n = 6), 10 MBq (10.2 ± 0.5 MBq, n = 6), 30 MBq (30.5 ± 2.7 MBq, n = 6) and control (n = 4) groups. Mice injected with [^225Ac]FAPI-46 were divided into four groups: 3 kBq (2.9 ± 0.0 kBq, n = 3), 10 kBq (8.5 ± 1.1 kBq, n = 2), 30 kBq (30.5 ± 0.7 kBq, n = 6) and control (n = 7) groups. The tumour size and body weight were measured with a caliper using the elliptical sphere model calculation, three times per week during the observation period.
# [4] = Body weight of treated PANC-1 xenograft mice; type: in vivo
# Method: as §1
# PANC-1 xenograft mice [5] = details: data not shown
# [6] = static PET scan 1 h after i.v. injection
compound,measurement,setting,value
N#C[C@@H]1CCCN1C(=O)CNC(=O)c1ccnc2ccc(OCCCN3CCN(C(=O)CN4CCN(CC(=O)[O-])CCN(CC(=O)[O-])CC4)CC3)cc12.[18F][Al+2] [[^18F]FAPI-74],SUVmean in the gallbladder,PANC-1 xenograft mice [1]; [6],0.66 ± 0.15
same,SUVmean in the heart,PANC-1 xenograft mice [1]; [6],0.08 ± 0.01
same,SUVmean in the intestine,PANC-1 xenograft mice [1]; [6],0.61 ± 0.48
same,SUVmean in the kidneys,PANC-1 xenograft mice [1]; [6],0.39 ± 0.07
same,SUVmean in the liver,PANC-1 xenograft mice [1]; [6],0.14 ± 0.02
same,SUVmean in the muscle,PANC-1 xenograft mice [1]; [6],0.05 ± 0.01
same,SUVmean in the tumour,PANC-1 xenograft mice [1]; [6],0.24 ± 0.04
same,clearance and tumour washout on dynamic PET,PANC-1 xenograft mice [1]; time-activity curve,cleared rapidly by the kidneys but washout from the tumour occurred slowly
CN(CCCN1CCN(C(=O)CN2CCN(CC(=O)[O-])CCN(CC(=O)[O-])CCN(CC(=O)[O-])CC2)CC1)c1ccc2nccc(C(=O)NCC(=O)N3CC(F)(F)C[C@H]3C#N)c2c1.[177Lu+3] [[^177Lu]FAPI-46],histological changes in the kidneys (H&E),PANC-1 xenograft mice [2]; day 44 after administration,No histological changes
same,histological changes in the tumour (H&E) compared to controls,PANC-1 xenograft mice [2]; day 44 after administration,No significant difference
same,%ID/g of the urine,"PANC-1 xenograft mice [3]; 3 h post-administration, PANC-1 xenograft mice",21.2 ± 15.3 %ID/g
same,organs with relatively high accumulation / residence,PANC-1 xenograft mice [3],"relatively high tracer accumulation was seen in the tumour, large intestine, and bone"
same,uptake in the liver,PANC-1 xenograft mice [3]; PANC-1 xenograft mice,low
same,clearance from organs,PANC-1 xenograft mice [3],Most organs showed fast clearance
same,tumour growth after administration,"PANC-1 xenograft; 3, 10, 30 MBq, multiple comparisons across the doses","inhibitory trend after administration, although the changes were not statistically significant"
same,therapeutic effects (time course),PANC-1 xenograft; 3 MBq and 10 MBq groups,slower and were seen until day 12
same,relative ratio of the tumour size compared to the control group,PANC-1 xenograft; 3 MBq group,0.62
same,relative ratio of the tumour size compared to the control group,PANC-1 xenograft; 10 MBq group,0.56
same,time after administration at which tumour-suppressive effects were observed,PANC-1 xenograft; 30 MBq group,9 days
same,relative ratio of the tumour size compared to the control group,PANC-1 xenograft; 30 MBq group,0.27
same,body weight compared to the controls,[4]; 10 MBq and 30 MBq groups,slight decrease without statistical significance
"[177Lu+3].[Cl-].[Cl-].[Cl-] [[^177Lu]LuCl3, Lutetium-177 chloride]",lethal dose,PANC-1 xenograft mice [5],30 MBq
CN(CCCN1CCN(C(=O)CN2CCN(CC(=O)[O-])CCN(CC(=O)[O-])CCN(CC(=O)[O-])CC2)CC1)c1ccc2nccc(C(=O)NCC(=O)N3CC(F)(F)C[C@H]3C#N)c2c1.[225Ac+3] [[^225Ac]FAPI-46],histological changes in the kidneys (H&E),PANC-1 xenograft mice [2]; day 32 after administration,No histological changes
same,organs with relatively high accumulation / residence,PANC-1 xenograft mice [3],"relatively higher residence time in the tumour, spleen, liver, stomach, small intestine, and large intestine"
same,uptake in the liver,PANC-1 xenograft mice [3]; PANC-1 xenograft mice,high accumulation in the liver
same,clearance from organs,PANC-1 xenograft mice [3],Most organs showed fast clearance
same,tumour-suppressive effects,PANC-1 xenograft; 3 kBq group,very mild
same,tumour growth after treatment,PANC-1 xenograft; 10 kBq and 30 kBq groups,suppressed immediately after treatment
same,tumour size vs control group,PANC-1 xenograft; 30 kBq group,significantly smaller than those in the control group on days 5–9 and day 25
same,day at which tumour regrowth began,PANC-1 xenograft; high dose,12 days
same,body weight recovery,[4]; 3 kBq and 10 kBq groups,recovery after day 7
same,body weight,"[4]; all groups (3, 10, 30 kBq)",decreasing trend in the first week
